Columns and labels:
Assay in all cases: Kinase profiling
Assay type in all cases: biochemical
[1] = biological target: T1, ROS (Homo sapiens, UniProt P08922); conditions: read-out: Percent inhibition, ROS; for inhibition at 1 µM: Conc 1000 nM
T1 construct: purchased Ambit (KINOMEscan)
Description: (§1) ; Fig. 5a; Supplementary Table 1). We focused on Dyrk1a because other kinases inhibited by aminopyrazine compounds were not highly expressed in β-cells and because Dyrk1a was known to inhibit the NFAT pathway that was previously implicated in β-cell proliferation. We used molecular modelling to dock the aminopyrazine compounds into the published structure of Dyrk1a (protein databank accession code 2vx3.pdb; Fig. 5b).

[2] = biological target: T2, NEK2 (Homo sapiens, UniProt P51955); conditions: Conc 1000 nM; read-out: Percent inhibition, NEK2
T2 construct: purchased Ambit (KINOMEscan)
Description: as §1

[3] = biological target: T3, AURORA-A (Homo sapiens, UniProt O14965); conditions: read-out: Percent inhibition, AURORA-A; for inhibition at 1 µM: Conc 1000 nM
T3 construct: purchased Ambit KINOMEscan
T3 sequence (O14965 1-403): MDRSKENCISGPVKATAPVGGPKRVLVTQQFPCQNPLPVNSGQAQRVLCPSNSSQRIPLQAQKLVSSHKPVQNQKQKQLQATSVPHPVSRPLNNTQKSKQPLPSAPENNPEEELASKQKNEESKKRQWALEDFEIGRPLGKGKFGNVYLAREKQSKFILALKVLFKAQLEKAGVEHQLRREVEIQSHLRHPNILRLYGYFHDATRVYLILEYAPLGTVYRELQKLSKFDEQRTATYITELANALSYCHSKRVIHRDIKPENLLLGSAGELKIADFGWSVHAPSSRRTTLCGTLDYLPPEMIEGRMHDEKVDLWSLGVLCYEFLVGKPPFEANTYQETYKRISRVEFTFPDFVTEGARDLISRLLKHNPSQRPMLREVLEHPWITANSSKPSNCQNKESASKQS
Description: as §1

[4] = biological target: T4, PLK1 (Homo sapiens, UniProt P53350); conditions: Conc 1000 nM; read-out: Percent inhibition, PLK1
T4 construct: purchased Ambit (KINOMEscan)
Description: as §1

[5] = biological target: T5, p38alpha (MAPK14) (Homo sapiens, UniProt Q16539); conditions: Conc 1000 nM; read-out: Percent inhibition, p38alpha (MAPK14)
T5 construct: purchased Ambit (KINOMEscan)
Description: as §1

[6] = biological target: T6, p70S6K1 (Homo sapiens, UniProt P23443); conditions: Conc 1000 nM; read-out: Percent inhibition, p70S6K1
T6 construct: purchased Ambit (KINOMEscan)
Description: as §1

[7] = biological target: T7, PDK1 (Homo sapiens, UniProt O15530); conditions: Conc 1000 nM; read-out: Percent inhibition, PDK1
T7 construct: purchased Ambit (KINOMEscan)
Description: as §1

[8] = biological target: T8, PDGFRa (Homo sapiens, UniProt P16234); conditions: read-out: Percent inhibition, PDGFRa; for inhibition at 1 µM: Conc 1000 nM
T8 construct: purchased Ambit (KINOMEscan)
T8 sequence (P16234 24-1089): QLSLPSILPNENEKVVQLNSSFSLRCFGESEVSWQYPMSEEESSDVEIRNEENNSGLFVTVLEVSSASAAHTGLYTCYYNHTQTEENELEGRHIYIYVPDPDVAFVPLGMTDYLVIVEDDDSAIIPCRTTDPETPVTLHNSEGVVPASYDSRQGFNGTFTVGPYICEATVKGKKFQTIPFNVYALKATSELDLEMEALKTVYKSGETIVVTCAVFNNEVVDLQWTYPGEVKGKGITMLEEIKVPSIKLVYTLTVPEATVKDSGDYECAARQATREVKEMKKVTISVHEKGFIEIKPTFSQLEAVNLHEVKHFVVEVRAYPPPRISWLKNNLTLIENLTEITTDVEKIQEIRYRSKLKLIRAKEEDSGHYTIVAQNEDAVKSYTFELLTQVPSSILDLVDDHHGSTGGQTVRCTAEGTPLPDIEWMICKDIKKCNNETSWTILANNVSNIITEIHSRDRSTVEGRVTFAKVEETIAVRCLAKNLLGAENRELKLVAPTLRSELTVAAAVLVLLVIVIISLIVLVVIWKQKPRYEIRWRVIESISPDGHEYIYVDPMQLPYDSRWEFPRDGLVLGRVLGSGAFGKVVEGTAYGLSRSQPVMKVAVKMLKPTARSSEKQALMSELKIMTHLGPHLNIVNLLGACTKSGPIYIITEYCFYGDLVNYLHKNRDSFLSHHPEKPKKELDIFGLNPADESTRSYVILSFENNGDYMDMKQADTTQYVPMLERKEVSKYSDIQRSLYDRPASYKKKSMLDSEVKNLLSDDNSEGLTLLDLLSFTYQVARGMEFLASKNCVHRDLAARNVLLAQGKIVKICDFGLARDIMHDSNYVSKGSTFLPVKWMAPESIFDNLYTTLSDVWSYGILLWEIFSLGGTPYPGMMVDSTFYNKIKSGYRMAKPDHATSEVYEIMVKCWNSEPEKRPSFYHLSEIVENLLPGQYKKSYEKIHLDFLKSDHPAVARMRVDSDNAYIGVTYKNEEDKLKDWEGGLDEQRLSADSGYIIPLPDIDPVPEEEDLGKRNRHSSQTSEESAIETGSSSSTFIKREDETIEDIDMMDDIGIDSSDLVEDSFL
Description: as §1

[9] = biological target: T9, AURORA-B (Homo sapiens, UniProt Q96GD4); conditions: Conc 1000 nM; read-out: Percent inhibition, AURORA-B
T9 construct: purchased Ambit KINOMEscan
T9 sequence (Q96GD4 whole entry): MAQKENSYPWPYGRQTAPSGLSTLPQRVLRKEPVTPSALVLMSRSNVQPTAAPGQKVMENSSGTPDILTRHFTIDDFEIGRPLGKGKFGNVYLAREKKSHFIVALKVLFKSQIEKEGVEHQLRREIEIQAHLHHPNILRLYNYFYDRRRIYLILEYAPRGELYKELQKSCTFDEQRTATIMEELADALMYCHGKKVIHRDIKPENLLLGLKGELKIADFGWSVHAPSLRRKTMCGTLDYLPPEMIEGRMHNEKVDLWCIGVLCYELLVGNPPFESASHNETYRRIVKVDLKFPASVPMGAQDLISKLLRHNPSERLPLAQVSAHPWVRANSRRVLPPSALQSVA
Description: as §1

[10] = biological target: T10, PKCalpha (Homo sapiens, UniProt P17252); conditions: read-out: Percent inhibition, PKCalpha; for inhibition at 1 µM: Conc 1000 nM
T10 construct: purchased Ambit (KINOMEscan)
Description: as §1

[11] = biological target: T11, CDK2/cyclinA (Homo sapiens, UniProt P24941); conditions: read-out: Percent inhibition, CDK2/cyclinA; for inhibition at 1 µM: Conc 1000 nM
T11 construct: purchased Ambit KINOMEscan
Description: as §1

[12] = biological target: T12, Axl (Homo sapiens, UniProt P30530); conditions: read-out: Percent inhibition, Axl; for inhibition at 1 µM: Conc 1000 nM
T12 construct: purchased Ambit KINOMEscan
T12 sequence (P30530 26-894): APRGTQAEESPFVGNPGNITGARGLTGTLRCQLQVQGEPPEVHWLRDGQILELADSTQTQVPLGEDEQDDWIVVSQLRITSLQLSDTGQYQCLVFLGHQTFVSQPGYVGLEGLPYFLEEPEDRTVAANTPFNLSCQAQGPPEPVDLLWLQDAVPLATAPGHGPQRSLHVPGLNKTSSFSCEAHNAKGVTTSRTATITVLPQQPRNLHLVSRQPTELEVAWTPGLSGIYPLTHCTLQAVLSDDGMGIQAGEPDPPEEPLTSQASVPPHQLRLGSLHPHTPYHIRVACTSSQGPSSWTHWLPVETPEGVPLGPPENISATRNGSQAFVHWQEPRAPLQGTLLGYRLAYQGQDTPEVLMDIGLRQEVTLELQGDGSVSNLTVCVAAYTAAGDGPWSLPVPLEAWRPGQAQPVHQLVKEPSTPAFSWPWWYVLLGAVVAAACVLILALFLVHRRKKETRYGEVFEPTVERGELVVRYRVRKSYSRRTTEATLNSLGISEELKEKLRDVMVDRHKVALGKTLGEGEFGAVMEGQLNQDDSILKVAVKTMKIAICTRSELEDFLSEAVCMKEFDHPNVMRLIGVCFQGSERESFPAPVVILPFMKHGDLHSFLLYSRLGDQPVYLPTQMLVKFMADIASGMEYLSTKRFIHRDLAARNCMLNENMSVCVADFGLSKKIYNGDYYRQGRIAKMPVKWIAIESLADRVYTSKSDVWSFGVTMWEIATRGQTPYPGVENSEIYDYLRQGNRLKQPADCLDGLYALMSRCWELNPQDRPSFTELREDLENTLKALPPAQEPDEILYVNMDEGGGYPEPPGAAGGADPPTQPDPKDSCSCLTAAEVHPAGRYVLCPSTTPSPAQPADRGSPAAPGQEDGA
Description: as §1

[13] = biological target: T13, PIM-2 (Homo sapiens, UniProt Q9P1W9); conditions: Conc 1000 nM; read-out: Percent inhibition, PIM-2
T13 construct: purchased Ambit (KINOMEscan)
T13 sequence (Q9P1W9 whole entry): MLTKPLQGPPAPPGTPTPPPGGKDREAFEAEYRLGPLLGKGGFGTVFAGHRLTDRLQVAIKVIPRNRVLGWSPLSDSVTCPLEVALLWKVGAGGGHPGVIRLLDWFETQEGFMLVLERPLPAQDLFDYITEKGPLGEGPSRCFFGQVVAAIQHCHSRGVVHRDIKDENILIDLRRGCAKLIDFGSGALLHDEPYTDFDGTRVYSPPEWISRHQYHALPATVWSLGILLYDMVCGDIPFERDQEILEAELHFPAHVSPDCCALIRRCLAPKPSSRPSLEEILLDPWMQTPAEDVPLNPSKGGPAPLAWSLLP
Description: as §1

[14] = biological target: T14, InsR (Homo sapiens, UniProt P06213); conditions: Conc 1000 nM; read-out: Percent inhibition, InsR
T14 construct: purchased Ambit KINOMEscan
Description: as §1

[15] = biological target: T15, p38delta (MAPK13) (Homo sapiens, UniProt O15264); conditions: Conc 1000 nM; read-out: Percent inhibition, p38delta (MAPK13)
T15 construct: purchased Ambit (KINOMEscan)
T15 sequence (O15264 whole entry): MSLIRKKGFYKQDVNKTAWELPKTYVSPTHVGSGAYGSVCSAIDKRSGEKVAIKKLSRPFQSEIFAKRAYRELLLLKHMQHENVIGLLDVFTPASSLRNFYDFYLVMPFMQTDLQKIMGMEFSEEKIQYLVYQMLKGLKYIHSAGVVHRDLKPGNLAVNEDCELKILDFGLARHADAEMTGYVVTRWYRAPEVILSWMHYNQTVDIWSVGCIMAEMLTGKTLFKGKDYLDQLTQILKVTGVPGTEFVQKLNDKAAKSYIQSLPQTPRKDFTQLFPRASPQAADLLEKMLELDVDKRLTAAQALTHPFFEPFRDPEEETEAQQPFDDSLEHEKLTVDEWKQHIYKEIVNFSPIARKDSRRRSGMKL
Description: as §1

[16] = biological target: T16, MET (Homo sapiens, UniProt P08581); conditions: Conc 1000 nM; read-out: Percent inhibition, MET
T16 construct: purchased Ambit (KINOMEscan)
Description: as §1

[17] = biological target: T17, cRAF (Homo sapiens, UniProt P04049); conditions: Conc 1000 nM; read-out: Percent inhibition, cRAF
T17 construct: purchased Ambit KINOMEscan
Description: as §1

[18] = biological target: T18, ErbB4 (HER4) (Homo sapiens, UniProt Q15303); conditions: Conc 1000 nM; read-out: Percent inhibition, ErbB4 (HER4)
T18 construct: purchased Ambit KINOMEscan
Description: as §1

T1 sequence (P08922 28-2347): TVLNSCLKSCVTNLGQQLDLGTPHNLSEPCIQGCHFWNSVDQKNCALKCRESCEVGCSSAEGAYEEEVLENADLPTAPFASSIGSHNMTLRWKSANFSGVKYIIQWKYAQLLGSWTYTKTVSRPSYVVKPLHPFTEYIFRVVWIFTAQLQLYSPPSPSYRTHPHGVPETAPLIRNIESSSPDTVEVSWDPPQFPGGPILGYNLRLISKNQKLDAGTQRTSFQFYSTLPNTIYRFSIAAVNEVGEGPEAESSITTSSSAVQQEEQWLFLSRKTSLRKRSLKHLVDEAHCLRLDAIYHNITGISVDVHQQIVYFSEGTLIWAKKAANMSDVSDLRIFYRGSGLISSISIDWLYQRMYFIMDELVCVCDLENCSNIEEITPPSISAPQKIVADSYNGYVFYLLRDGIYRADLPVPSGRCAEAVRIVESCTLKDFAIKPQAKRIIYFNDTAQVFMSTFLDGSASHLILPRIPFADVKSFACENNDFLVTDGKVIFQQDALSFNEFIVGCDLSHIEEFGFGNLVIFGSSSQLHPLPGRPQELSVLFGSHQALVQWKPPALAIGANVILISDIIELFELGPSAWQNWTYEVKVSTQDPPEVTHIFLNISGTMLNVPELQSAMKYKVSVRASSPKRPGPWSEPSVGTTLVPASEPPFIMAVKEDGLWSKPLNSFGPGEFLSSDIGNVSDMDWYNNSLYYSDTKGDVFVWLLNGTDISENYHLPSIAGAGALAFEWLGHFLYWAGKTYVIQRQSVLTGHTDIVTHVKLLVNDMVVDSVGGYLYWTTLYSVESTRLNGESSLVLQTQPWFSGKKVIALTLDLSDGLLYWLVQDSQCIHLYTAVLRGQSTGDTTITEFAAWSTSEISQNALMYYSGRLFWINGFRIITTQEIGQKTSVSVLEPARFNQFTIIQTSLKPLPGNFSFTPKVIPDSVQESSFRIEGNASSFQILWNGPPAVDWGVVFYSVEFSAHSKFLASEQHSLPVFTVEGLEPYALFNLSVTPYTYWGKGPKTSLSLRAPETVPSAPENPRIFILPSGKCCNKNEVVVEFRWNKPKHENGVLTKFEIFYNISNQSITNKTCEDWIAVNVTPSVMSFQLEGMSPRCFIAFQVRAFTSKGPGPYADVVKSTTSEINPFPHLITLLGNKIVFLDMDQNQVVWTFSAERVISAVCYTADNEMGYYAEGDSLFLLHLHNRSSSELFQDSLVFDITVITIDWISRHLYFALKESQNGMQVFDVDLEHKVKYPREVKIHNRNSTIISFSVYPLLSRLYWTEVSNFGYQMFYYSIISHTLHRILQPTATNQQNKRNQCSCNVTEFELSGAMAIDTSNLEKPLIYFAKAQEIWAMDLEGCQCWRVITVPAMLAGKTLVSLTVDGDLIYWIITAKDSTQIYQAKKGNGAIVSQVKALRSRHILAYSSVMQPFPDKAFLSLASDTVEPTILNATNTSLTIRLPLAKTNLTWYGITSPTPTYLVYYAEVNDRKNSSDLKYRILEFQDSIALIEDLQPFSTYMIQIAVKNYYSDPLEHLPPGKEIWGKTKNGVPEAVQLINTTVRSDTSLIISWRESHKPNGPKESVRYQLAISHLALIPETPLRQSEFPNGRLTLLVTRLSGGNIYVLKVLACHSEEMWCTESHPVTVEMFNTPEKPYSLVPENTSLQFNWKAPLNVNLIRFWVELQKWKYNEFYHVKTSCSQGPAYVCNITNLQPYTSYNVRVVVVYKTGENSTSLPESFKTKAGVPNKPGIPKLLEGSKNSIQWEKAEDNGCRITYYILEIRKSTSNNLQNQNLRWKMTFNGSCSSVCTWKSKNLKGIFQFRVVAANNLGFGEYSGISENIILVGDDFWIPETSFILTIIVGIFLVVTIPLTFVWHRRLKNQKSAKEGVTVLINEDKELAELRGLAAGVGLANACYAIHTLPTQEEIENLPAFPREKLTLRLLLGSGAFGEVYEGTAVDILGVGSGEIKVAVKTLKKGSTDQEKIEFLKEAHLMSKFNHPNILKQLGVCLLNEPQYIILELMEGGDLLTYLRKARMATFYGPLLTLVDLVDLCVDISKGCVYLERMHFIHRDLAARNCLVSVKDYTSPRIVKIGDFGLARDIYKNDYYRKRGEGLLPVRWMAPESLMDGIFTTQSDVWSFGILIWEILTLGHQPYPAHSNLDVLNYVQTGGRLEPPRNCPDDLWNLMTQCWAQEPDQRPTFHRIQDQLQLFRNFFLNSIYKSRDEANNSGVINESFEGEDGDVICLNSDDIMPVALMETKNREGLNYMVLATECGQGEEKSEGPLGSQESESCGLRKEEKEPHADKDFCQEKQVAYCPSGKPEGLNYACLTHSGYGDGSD

Row | SMILES | inhibition at 1 µM [1] [%] | inhibition at 1 µM [2] [%] | inhibition at 1 µM [3] [%] | inhibition at 1 µM [4] [%] | inhibition at 1 µM [5] [%] | inhibition at 1 µM [6] [%] | inhibition at 1 µM [7] [%] | inhibition at 1 µM [8] [%] | inhibition at 1 µM [9] [%] | inhibition at 1 µM [10] [%] | inhibition at 1 µM [11] [%] | inhibition at 1 µM [12] [%] | inhibition at 1 µM [13] [%] | inhibition at 1 µM [14] [%] | inhibition at 1 µM [15] [%] | inhibition at 1 µM [16] [%] | inhibition at 1 µM [17] [%] | inhibition at 1 µM [18] [%] | other results
1 | CC(C)Oc1ccc(F)c(-c2cnc(N)c(C(=O)Nc3cnccc3N3CCC[C@@H](C(=O)O)C3)n2)c1 [GNF4877] | 97 | 0 | 84 | 22 | 6 | 75 | 45 | 88 | 49 | 97 | 95 | 94 | 31 | 51 | 13 | 63 | 18 | 54 | inhibition at 0.2 µM ([1]; Conc 200 nM): 71%; inhibition at 0.2 µM ([3]; Conc 200 nM): 0%; inhibition at 0.2 µM ([8]; Conc 200 nM): 0%; inhibition at 0.2 µM ([10]; Conc 200 nM): 0%; inhibition at 0.2 µM ([11]; Conc 200 nM): 67%; inhibition at 0.2 µM ([12]; Conc 200 nM): 74%
2 | Nc1ncc(-c2ccccc2)nc1C(=O)Nc1cnccc1N1CCC(C(=O)O)CC1 [GNF7156] | 96 | 3 | 95 | 85 | 9 | 50 | 43 | 78 | 52 | 96 | 90 | 88 | 60 | 24 | 10 | 47 | 17 | 36 | –

— publication PMC4639830, “Inhibition of DYRK1A and GSK3B induces human β-cell proliferation” (Nature Communications, 2015)
